Measurements published in publication PMC6095874, “Discovery of cationic nonribosomal peptides as Gram-negative antibiotics through global genome mining” (Nature Communications, 2018).
≈ marks a conversion by molar mass, not a printed value. Like-named read-outs stand apart in the source and are kept apart here. Where a SMILES comes first, the peptide text is derived from it. Bridges are numbered along the chain shown (N, C = ends). [ ]: non-standard residue; d: D form. The star is where a group is joined. ξ: configuration not given here. Hexanoyl(4ξ-Me) = CCC(C)CCC(=O)*; dOrn = NCCC[C@@H](N)C(=O)O; Orn = NCCC[C@H](N)C(=O)O

How the values were obtained:
[1] = system: Staphylococcus aureus (MRSA); type: cell-based; conditions: 24 h
Procedure: (§1) MIC was determined by broth microdilution according to CLSI guidelines. The test medium for most species was Mueller–Hinton broth (MHB). Bacteria were grown overnight to early stationary phase and adjusted in MHB to 5.0 × 10^5 c.f.u. mL^−1 in the wells of 96-well microtiter plates (Falcon® 96-Well Flat-Bottom Microplate, Tissue Culture-Treated), mixed with varying concentrations of test compounds and incubated at 37 °C for 24 h. Cell growth was evaluated by measuring the optical density at 595 nm (Thermo Scientific Multiskan FC multiplate photometer) (Waltham, MA, USA), and the MIC was defined as the lowest compound concentration at which no bacterial growth was observed. MHBs containing 10% fetal bovine serum (Gibco), 21 mM MgCl, or 1.0 mg mL^−1 LPS (lipopolysaccharides from E. coli O55:B5, Sigma-Aldrich) was used to test their inhibitory effects.

[2] = system: Pseudomonas aeruginosa PAO1; type: cell-based; conditions: Supplementary Table 1; Pa = Pseudomonas aeruginosa PAO1
Procedure: as §1

[3] = system: Gram-negative bacteria; type: cell-based
Procedure: as §1

[4] = system: E. coli ATCC 25922; assay: Neutropenic mouse thigh infection model; type: in vivo
Procedure: Given the low risk of resistance and the attractive mode of action of 1–2, an animal efficacy study was then performed in a mouse thigh model. Mice were intramuscularly infected with 1.50 × 10^6 c.f.u. of E. coli ATCC 25922. Two hours post infection, brevicidine (30 mg kg^−1) or laterocidine (15 mg kg^−1) was subcutaneously injected at two doses. […] In particular, compound 1 was highly efficacious in mice infected with E. coli and caused a 5 log10 reduction in c.f.u. in the thigh compared to the vehicle control after 24 h (Fig. 4f).
In vivo activities of brevicidine and laterocidine were tested using the mouse thigh infection model. Animal studies were performed by Pharmacology Discovery Services Taiwan Ltd. in general accordance with standard guidelines on animal welfare[38] in an AAALAC-accredited facility. The protocol was reviewed and approved by the Institutional Animal Care and Use Committee. Groups of five female-specific pathogen-free ICR (CD-1) mice weighing 22 ± 2 g (~5 weeks of age) were used. Animals were immunosuppressed with two intraperitoneal injections of cyclophosphamide, the first at 150 mg kg^−1 4 days before infection (day −4) and the second at 100 mg kg^−1 1 day before infection (day −1). On day 0, animals were inoculated intramuscularly (0.1 mL per thigh) in the right thigh with an E. coli ATCC 25922 suspension. Vehicle (10% DMSO, 1% Tween 80, 0.9% NaCl) and antibiotics were then subcutaneously injected 2 and 8 h later. Due to the limited availability of compounds 1–2, only one concentration of 1 (30 mg kg^−1) or 2 (15 mg kg^−1) was used in the present study. Precisely 26 h after inoculation, animals were euthanized by CO2 asphyxiation before their right thigh muscles were harvested. The removed muscles were homogenized in 5 mL of PBS, pH 7.4, with a Polytron homogenizer. Homogenates in the amount of 0.1 mL were used for serial tenfold dilutions and plated onto a nutrient agar medium for colony count (in c.f.u. g^−1) determination. No randomization or blinding was necessary for the animal infection models, and no samples were excluded.

[5] = system: rabbit erythrocytes; conditions: concentrations up to 128 μg mL^−1, 2% (v/v) rabbit erythrocytes in PBS, 1 h, 37 °C, absorbance 570 nm, vs 10% Triton X-100
Procedure: Hemolytic activity was determined with red blood cells freshly isolated from healthy rabbits. […] The cells were incubated for 1 h at 37 °C and centrifuged for 5 min at 10,000 × g. The supernatant was transferred to a 96-well plate and the absorbance was measured at a wavelength of 570 nm with a Thermo Scientific Multiskan FC multiplate photometer. The absorbance relative to the positive control, which was treated with 10% Triton X-100, was defined as the percentage of hemolysis.

CCC(C)CCC(=O)N[C@H](CC(N)=O)C(=O)N[C@H](Cc1ccc(O)cc1)C(=O)N[C@H](Cc1c[nH]c2ccccc12)C(=O)N[C@H](CCCN)C(=O)N[C@@H](CCCN)C(=O)NCC(=O)N[C@H](CCCN)C(=O)N[C@@H](Cc1c[nH]c2ccccc12)C(=O)N[C@@H]1C(=O)N[C@@H]([C@@H](C)CC)C(=O)NCC(=O)N[C@@H](CO)C(=O)O[C@@H]1C (stereo partly shown) [Compound 1, brevicidine] ({Hexanoyl(4ξ-Me)}-[dN][dY][dW][dOrn][Orn]G[dOrn]WTIGS; ester 9-C) was tested, and the MIC [1] was >64 µg/mL, the “MIC, Pa” value [2] was 1 µg/mL (≈ 0.658 µM) and the “MIC values against Gram-negative bacteria” value ([3]; 24 h) was 0.66 to 10.5 µM. For the same compound, the “MIC values against Gram-negative bacteria” value ([3]; range over Gram-negative strains incl. P. aeruginosa and colistin-resistant E. coli) was 1 to 16 µg/mL, the “reduction in c.f.u. in the thigh compared to the vehicle control” value ([4]; 30 mg kg^−1 subcutaneous at 2 and 8 h post infection, neutropenic ICR mice (n = 5), after 24 h) was 5 log10 and the “viable bacteria in thigh” value ([4]; brevicidine 30 mg kg^−1 twice s.c., five mice, after 26 h, Mann–Whitney P < 0.01) was “reduced number of viable bacteria”. The “lysis of erythrocytes (hemolysis)” value [5] was “neither caused the lysis of erythrocytes”.
